1 compound from patent US6884421B2, “Pharmaceutical composition for diabetic nephropathy” (Council of Scientific and Industrial Research, priority 2002, dated 2005) can be followed below.

Experiment [1] deals with diabetic rats. The experiment in a line: Glomerular Filtration Rate from urinary and plasma creatinine in streptozotocin diabetic rats. The class given is in vivo, Male Wistar rats. The following applies: end of fifth week, mean ±SEM. The source says: Urinary creatinine is estimated by alkaline picrate reagent method. […] The plasma is deproteinsed using tungstic acid prior to creatinine estimation.
The formula used is [formula]

Experiment [2] has as its system diabetic rats. The experiment in a line: Urinary protein excretion by TCA precipitation method in streptozotocin diabetic rats. Format: in vivo, Male Wistar rats. The following applies: end of fifth week.
Method: Urinary protein is determined at the end of fifth week by TCA precipitation method and the absorbance is measured at 660 nm.
Diabetes is induced in Male Wistar rats weighing between 120 g using streptozotocin at 55 mg/kg body weight and the rats are fed with wheat bran (1 to 5%), guar gum (1 to 2.5%) and butyric acid in the range of 1, 2, 4, 6, 8 and 10 mg/kg body weight/day in drinking water. After 4 days measuring fasting blood glucose level in the plasma and urinary sugar levels assessed the diabetic status.
Diabetes is induced in Male Wistar rats weighing between 120 g using streptozotocin at 55 mg/kg body weight and the rats are fed with wheat bran (1 to 5%), guar gum (1 to 2.5%) and butyric acid in the range of 250, 500 and 750 mg/kg body weight/day in drinking water. After 4 days measuring fasting blood glucose level in the plasma and urinary sugar levels assessed the diabetic status.
Urinary protein is determined at the end of fifth week by TCA precipitation method and the absorbance is measured at 660 nm (Table 2).
Where [3] appears, read: FFD-250: fibre fed (wheat bran, guar gum) diabetic rats, 250 mg butyric acid/kg body weight/day in drinking water.
[4] abbreviates: FFD-500: fibre fed (wheat bran, guar gum) diabetic rats, 500 mg butyric acid/kg body weight/day in drinking water.
Setting [5] is: FFD-750: fibre fed (wheat bran, guar gum) diabetic rats, 750 mg butyric acid/kg body weight/day in drinking water.
Where [6] appears, read: SFD-250: starch fed diabetic rats, 250 mg butyric acid/kg body weight/day in drinking water.
Where [7] appears, read: SFD-500: starch fed diabetic rats, 500 mg butyric acid/kg body weight/day in drinking water.
Where [8] appears, read: SFD-750: starch fed diabetic rats, 750 mg butyric acid/kg body weight/day in drinking water.

Marks after values point to notes of the source that are not given here.

Take `CCCC(=O)O` [butyric acid]: the GFR is listed as 10.56 ± 1.05^b mL/min in the experiment with diabetic rats [1] (setting [3]); 9.23 ± 1.09^b mL/min with diabetic rats [1] (setting [4]); 11.64 ± 1.27^b mL/min in the experiment on diabetic rats [1] (setting [5]); 15.99 ± 1.30 mL/min with diabetic rats [1] (setting [6]); 15.60 ± 1.21 mL/min in the experiment with diabetic rats [1] (setting [7]); 15.23 ± 1.04 mL/min with diabetic rats [1] (setting [8]). Moreover, the Urinary protein in the experiment with diabetic rats [2] (setting [3]) is reported as 104.07 ± 11.31^b mg/24 h; in the experiment on diabetic rats [2] (setting [4]), 88.82 ± 9.82^b mg/24 h; in the experiment with diabetic rats [2] (setting [5]), 90.37 ± 9.14^b mg/24 h; in the experiment with diabetic rats [2] (setting [6]), 126.77 ± 9.82 mg/24 h; in the experiment on diabetic rats [2] (setting [7]) it was 124.86 ± 6.81^b mg/24 h; in the experiment with diabetic rats [2] (setting [8]), 115.37 ± 10.91 mg/24 h.
